Data as given in patent US5624952A, “[(Benzodioxan, benzofuran or benzopyran) alkylamino] alkyl substituted guanidines” (Janssen Pharmaceutica N.V., priority 1993, dated 1997).
Structures can show the parent of a compound that is named as a salt.

What follows are molecules tested on basilar arteries of pigs (assay: Constriction of isolated basilar artery segments of pigs in organ baths (serotonin-like response)). Conditions: Sus scrofa; pig basilar artery segments, 37° C., Krebs-Henseleit; relative to serotonin 3×10^-7 M; estimated from three different preparations; read-out: ED50 (molar concentration at which a test compound causes 50% of the constrictive response obtained with serotonin).
Description: Segments of basilar aeries taken from pigs (anaesthetised with sodium pentobarbital) were mounted for recording of isometric tension in organ baths. The preparations were bathed in Krebs--Henseleit solution. The solution was kept at 37° C. and gassed with a mixture of 95% O2 -5% CO2. The Preparations were stretched until a stable basal tension of 2 grams was obtained.
The preparations were made to constrict with serotonin (3×10^-7 M). The response to the addition of serotonin was measured and subsequently the serotonin was washed away.
This Procedure was repeated until stable responses were obtained.
Subsequently the test compound was administered to the organ bath and the constriction of the Preparation was measured. This constrictive response is expressed as a Percentage of the response to serotonin as measured Previously.
The ED50 -value (molar concentration) is defined as the concentration at which a test compound causes 50% of the constrictive response obtained with serotonin. Said
ED50 -values are estimated from experiments on three different preparations.
`Cc1cccc2c1OC(CNCCCNC1=NCCCN1)CC2` (centres unmarked) [Compound 84] gave an EC50 of 13.3 nM. For `Fc1ccc2c(c1)CCC(CNCCCNc1ncccn1)O2` (centres unmarked) [Compound 3], the EC50 was 146 nM. Molecule `c1ccc2c(c1)OCC(CNCCCNC1=NCCCN1)O2` (centres unmarked) [Compound 64] has an EC50 of 89.7 nM. Work on `c1ccc2c(c1)CCC(CNCCNC1=NCCN1)O2` (centres unmarked) [Compound 129] yielded an EC50 of 444 nM. Molecule `c1ccc2c(c1)CCC(CNCCNC1=NCCCN1)O2` (centres unmarked) [Compound 57] has an EC50 of 542 nM. `CCCc1ccc2c(c1)OC(CNCCCNC1=NCCCN1)CC2` (centres unmarked) [Compound 88] gave an EC50 of 7.02 nM. Work on `CCCNC(=N)NCCCNCC1CCc2ccccc2O1` (centres unmarked) [Compound 149] yielded an EC50 of 99.2 nM. Work on `c1ccc2c(c1)CC[C@@H](CNCCCNC1=NCCCN1)O2` [Compound 65] yielded an EC50 of 221 nM. In the case of `Fc1ccc2c(c1)CC[C@H](CNCCNc1ncccn1)O2` [Compound 46, (-)-(R)-N-[(6-fluoro-3,4-dihydro-2H-1-benzopyran-2yl)methyl]-N'-(2-pyrimidinyl)-1,2-ethanediamine], the EC50 is reported as 1000 nM. `COc1ccc2c(c1)OC(CNCCCNC1=NCCCN1)CC2` (centres unmarked) [Compound 78] showed an EC50 of 35.4 nM. For `c1ccc2c(c1)CCC(CNCCCNc1nccnn1)O2` (centres unmarked) [Compound 115], the EC50 was 45.1 nM. Work on `c1ccc2c(c1)CCC(CNCCCNC1=NCCN1)O2` (centres unmarked) [Compound 130] yielded an EC50 of 33.6 nM. Work on `Fc1ccc2c(c1)CC[C@H](CNCCCNC1=NCCCN1)O2` [Compound 70] yielded an EC50 of 6.37 nM. With `CCc1ccc2c(c1)OC(CNCCCCCNC1=NCCCN1)CC2` (centres unmarked) [Compound 82] the EC50 was 17.6 nM. Molecule `Fc1ccc2c(c1)CC[C@H](CNCCCNc1ncccn1)O2` [Compound 13] has an EC50 of 42.2 nM. `CC(C)NC(=N)NCCCNCC1CCc2ccccc2O1` (racemic) [Compound 150, (±)-N-[3-[[(3,4-dihydro-2H-1-benzopyran-2-yl)methyl]amino]propyl]-N'-(1-methylethyl)-guanidine dihydrochloride] was tested, and the EC50 was 46.9 nM. `c1ccc2c(c1)CCC(CNCCCNC1=NCCCN1)O2` (racemic) [Compound 95, (±)-N-[(3,4-dihydro-2H-1-benzopyran-2-yl)methyl]-N'-(1,4,5,6-tetrahydro-2-pyrimidinyl)-1,3-propanediamine dihydrochloride] showed an EC50 of 81.7 nM. In the case of `c1ccc2c(c1)CC[C@H](CNCCCCNC1=NCCCN1)O2` [Compound 99], the EC50 is reported as 42.2 nM. Molecule `c1ccc2c(c1)CCC(CNCCCNC1=NCCCCN1)O2` (centres unmarked) [Compound 111] has an EC50 of 16.7 nM. Molecule `NC(=O)c1ccnc(NCCCNCC2CCc3ccccc3O2)n1` (centres unmarked) [Compound 114] has an EC50 of 95.6 nM. In the case of `N#Cc1ccnc(NCCCNCC2CCc3ccccc3O2)n1` (centres unmarked) [Compound 113], the EC50 is reported as 16.3 nM. In the case of `Brc1ccc2c(c1)CCC(CNCCCNC1=NCCCN1)O2` (racemic) [Compound 56, (±)-N-[(6-bromo-3,4-dihydro-2H-1-benzopyran-2-yl)methyl]-N'-(1,4,5,6-tetrahydro-2-pyrimidinyl)-1,3-propanediamine ethanedioate(1:2)], the EC50 is reported as 187 nM. Work on `Cc1ccc2c(c1)OC(CNCCCNC(=N)N(C)C)CC2` (centres unmarked) [Compound 152] yielded an EC50 of 56 nM. `Cc1ccc2c(c1)OC(CNCCCNC1=NCCCN1)CC2` (centres unmarked) [Compound 67] was tested, and the EC50 was 17.7 nM. In the case of `c1cnc(NCCCNC[C@@H]2CCc3ccccc3O2)nc1` [Compound 5], the EC50 is reported as 515 nM. Molecule `Fc1ccc2c(c1)CCC(CNCCCCCCNC1=NCCCN1)O2` (centres unmarked) [Compound 68] has an EC50 of 33.3 nM. `c1ccc2c(c1)CC[C@H](CN1CCC(NC3=NCCCN3)CC1)O2` [Compound 139] showed an EC50 of 150 nM. For `CCc1ccc2c(c1)OC(CNCCCNC(=N)N(C)C)CC2` (centres unmarked) [Compound 153], the EC50 was 21.8 nM. Molecule `CC(C)(C)c1ccc2c(c1)OC(CNCCCNC1=NCCCN1)CC2` (centres unmarked) [Compound 89] has an EC50 of 79.4 nM. `COc1cccc2c1OC(CNCCCNC1=NCCCN1)CC2` (centres unmarked) [Compound 76] showed an EC50 of 9.19 nM. `c1ccc2c(c1)CC[C@H](CNCCCNC1=NCCCN1)O2` [Compound 62, (-)-(R)-N-[(3,4-dihydro-2H-1-benzopyran-2-yl)methyl]-N'-(1,4,5,6-tetrahydro-2-pyrimidinyl)-1,3-propanediamine dihydrochloride hemihydrate] was tested, and the EC50 was 31.7 nM. `Fc1ccc2c(c1)CCC(CNCCCNC1=NCCN1)O2` (centres unmarked) [Compound 106] gave an EC50 of 39 nM. In the case of `c1ccc2c(c1)CCC(CN1CCC(NC3=NCCCN3)CC1)O2` (centres unmarked) [Compound 136], the EC50 is reported as 810 nM. Work on `CN(C)C(=N)NCCCNCC1CCc2ccccc2O1` (centres unmarked) [Compound 151] yielded an EC50 of 27.1 nM. `c1ccc2c(c1)CCC(CNCCCCCNC1=NCCCN1)O2` (centres unmarked) [Compound 98] gave an EC50 of 34.2 nM. `CCc1ccc2c(c1)OC(CNCCCNC1=NCCN1)CC2` (centres unmarked) [Compound 133] was tested, and the EC50 was 52.7 nM. In the case of `Fc1ccc2c(c1)OC(CNCCCNC1=NCCCN1)CC2` (centres unmarked) [Compound 72], the EC50 is reported as 23.4 nM. Molecule `CCCCc1ccc2c(c1)OC(CNCCCNC1=NCCCN1)CC2` (centres unmarked) [Compound 87] has an EC50 of 88.7 nM. Work on `CC(C)c1ccc2c(c1)OC(CNCCCNC1=NCCCN1)CC2` (centres unmarked) [Compound 86] yielded an EC50 of 41.6 nM. `CCc1ccc2c(c1)OC(CNCCCNC1=NCCCN1)CC2` (centres unmarked) [Compound 73] gave an EC50 of 3.46 nM. Molecule `c1cnc(NCCCCNCC2CCc3ccccc3O2)nc1` (centres unmarked) [Compound 48] has an EC50 of 306 nM. For `c1ccc2c(c1)CC(CNCCCNC1=NCCCN1)O2` (centres unmarked) [Compound 66], the EC50 was 656 nM. Work on `CCNC(=N)NCCNCC1CCc2ccccc2O1` (centres unmarked) [Compound 148] yielded an EC50 of 495 nM. `CCc1ccc2c(c1)OC(CNCCCCNc1ncccn1)CC2` (centres unmarked) [Compound 18] gave an EC50 of 49 nM. `CCc1ccc2c(c1)OC(CNCCCNC1=NCCCCN1)CC2` (centres unmarked) [Compound 116] showed an EC50 of 68.2 nM. In the case of `c1ccc2c(c1)CCC(CNCCCCNC1=NCCCN1)O2` (centres unmarked) [Compound 97], the EC50 is reported as 97.6 nM. For `Fc1ccc2c(c1)CCC(CNCCCNC1=NCCCN1)O2` (centres unmarked) [Compound 63], the EC50 was 121 nM.
